The source of these data is patent publication US6897214B2, “Quinazoline derivatives” (Zeneca Limited, priority 1996, dated 2005).

Each structure is given as a SMILES string. pIC50: −log10 of the molar value.

For orientation: pIC50 means the IC50 on a negative log10 scale, so that one unit is a factor of ten. Read a high pIC50 as a small IC50. Broadly, the melting point is the temperature, or range, at which the solid turns liquid.

The target in the first data set is T1, EGF receptor tyrosine kinase (Homo sapiens, UniProt P00533).
T1 construct: Receptor tyrosine kinase was obtained in partially purified form from A-431 cells; endogenous in cells; host or cells: A-431 cells (human vulval carcinoma), solubilised membrane preparation
T1 sequence (P00533 25-1210): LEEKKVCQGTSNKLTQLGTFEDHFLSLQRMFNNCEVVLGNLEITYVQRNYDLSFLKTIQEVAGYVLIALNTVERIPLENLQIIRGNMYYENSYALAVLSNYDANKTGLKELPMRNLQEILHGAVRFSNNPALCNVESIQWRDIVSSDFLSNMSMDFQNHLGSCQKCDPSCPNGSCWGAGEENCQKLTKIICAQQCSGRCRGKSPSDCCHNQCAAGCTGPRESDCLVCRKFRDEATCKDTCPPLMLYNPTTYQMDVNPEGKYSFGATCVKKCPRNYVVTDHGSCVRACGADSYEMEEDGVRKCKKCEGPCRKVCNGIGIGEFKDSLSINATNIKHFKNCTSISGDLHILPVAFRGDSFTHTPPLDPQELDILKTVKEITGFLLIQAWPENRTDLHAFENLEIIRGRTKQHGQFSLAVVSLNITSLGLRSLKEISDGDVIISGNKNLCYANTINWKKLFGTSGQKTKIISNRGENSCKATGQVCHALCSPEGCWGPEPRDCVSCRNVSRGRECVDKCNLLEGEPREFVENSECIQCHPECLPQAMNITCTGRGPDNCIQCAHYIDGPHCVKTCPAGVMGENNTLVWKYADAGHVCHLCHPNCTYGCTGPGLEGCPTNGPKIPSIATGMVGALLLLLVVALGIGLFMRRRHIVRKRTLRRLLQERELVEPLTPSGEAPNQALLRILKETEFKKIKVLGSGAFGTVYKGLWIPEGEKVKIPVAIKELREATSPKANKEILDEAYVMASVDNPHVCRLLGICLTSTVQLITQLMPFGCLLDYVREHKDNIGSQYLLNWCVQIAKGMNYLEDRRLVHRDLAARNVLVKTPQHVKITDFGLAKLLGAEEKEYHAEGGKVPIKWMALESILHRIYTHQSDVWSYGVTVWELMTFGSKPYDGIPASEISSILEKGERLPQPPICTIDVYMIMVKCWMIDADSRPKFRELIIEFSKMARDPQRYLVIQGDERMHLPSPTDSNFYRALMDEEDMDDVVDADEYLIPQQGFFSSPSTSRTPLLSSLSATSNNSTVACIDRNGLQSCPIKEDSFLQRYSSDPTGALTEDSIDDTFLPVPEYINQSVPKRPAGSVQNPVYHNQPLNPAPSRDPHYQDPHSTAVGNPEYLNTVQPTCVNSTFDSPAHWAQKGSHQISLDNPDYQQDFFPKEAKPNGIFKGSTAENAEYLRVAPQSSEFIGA
The experiment in a line: Test (a): in vitro inhibition of the enzyme EGF receptor tyrosine kinase. It counts as biochemical. The settings on record: enzyme partially purified from A-431 cells. The protocol: (a) An in vitro assay which determines the ability of a test compound to inhibit the enzyme EGF receptor tyrosine kinase. Receptor tyrosine kinase was obtained in partially purified form from A-431 cells (derived from human vulval carcinoma) by the procedures described below which are related to those described by Carpenter et al, J. Biol. Chem., 1979, 254, 4884, Cohen et al., J. Biol. Chem., 1982, 257, 1523 and by Braun et al., J. Biol Chem., 1984, 259, 2051.
A-431 cells were grown to confluence using Dulbecco's modified Eagle's medium DMEM) containing 5% fetal calf serum (FCS). The obtained cells were homogenised in a hypotonic borate/EDTA buffer at pH 10.1. The homogenate was centrifuged at 400 g for 10 minutes at 0-4° C. The supernatant was centrifuged at 25,000 g for 30 minutes at 0-4° C. […]
The test compound/EGF mixture solution (5 μl) was added to the test enzyme solution (10 μl) and the mixture was incubated at 0-4° C. for 30 minutes. […] Radioactivity present in the filter paper was measured using a liquid scintillation counter (Sequence A). […]
Receptor tyrosine kinase inhibition was calculated as follows: [formula]
The extent of inhibition was then determined at a range of concentrations of test compound to give an IC50 value.
On to `Fc1ccc(Nc2ncnc3ccc(-c4ccc(CCN5CCOCC5)s4)cc23)cc1Cl` [Example 8, 4-(3-chloro-4-fluoroanilino)-6-[5-(2-morpholinoethyl)thien-2-yl]quinazoline], for which the pIC50 was 7.40.

The subject of another data set is human naso-pharyngeal cancer cell line KB. The experiment in a line: Test (b): in vitro inhibition of EGF-stimulated growth of KB cells. It is filed as cell-based. Particulars: EGF (10 ng/ml) stimulated growth, MTT. The method, then: (b) An in vitro assay which determines the ability of a test compound to inhibit the EGF-stimulated growth of the human naso-pharyngeal cancer cell line KB.
KB cells were seeded into wells at a density of 1×10^4-1.5×10^4 cells per well and grown for 24 hours in DMEM supplemented with 5% FCS (charcoal-stripped). Cell growth was determined after. incubation for 3 days by the extent of metabolism of MTT tetrazolium dye to furnish a bluish colour. Cell growth was then determined in the presence of EGF (10 ng/ml) or in the presence of EGF (10 ng/ml) and a test compound at a range of concentrations. An IC50 value could then be calculated.
In the case of `Fc1ccc(Nc2ncnc3ccc(-c4ccc(CCN5CCOCC5)s4)cc23)cc1Cl` [Example 8, 4-(3-chloro-4-fluoroanilino)-6-[5-(2-morpholinoethyl)thien-2-yl]quinazoline], the pIC50 is 6.72.

A further data set has as its system xenografts of the human vulval epidermoid carcinoma cell line A-431. The experiment in a line: Test (d): in vivo inhibition of growth of A-431 xenografts in athymic nude mice. Particulars: dosage of 50 mg/kg/day. The protocol: (d) An in-vivo assay in a group of athymic nude mice (strain ONU:Alpk) which determines the ability of a test compound (usually administered orally as a ball-milled suspension in 0.5% polysorbate) to inhibit the growth of xenografts of the human vulval epidermoid carcinoma cell line A-431.
A-431 cells were maintained in culture in DMEM supplemented with 5% FCS and 2 mM glutamine. Freshly cultured cells were harvested by trypsinization and injected subcutaneously (10 million cells/0.1 ml/mouse) into both flanks of a number of donor nude mice. When sufficient tumour material was available (after approximately 9 to 14 days), fragments of tumour tissue were transplanted into the flanks of recipient nude mice (test day 0). Generally, on the seventh day after transplantation (test day 7) groups of 7 to 10 mice with similar-sized tumours were selected and dosing of the test compound was commenced. Once-daily dosing of test compound was continued for a total of 13 days (test days 7 to 19 inclusive). In some studies the dosing of the test compound was continued beyond test day 19, for example to test day 26. In each case, on the following day the animals were killed and final tumour volume was calculated from measurements of the length and width of the tumours. Results were calculated as a percentage inhibition of tumour volume relative to untreated controls.
`Fc1ccc(Nc2ncnc3ccc(-c4ccc(CCN5CCOCC5)s4)cc23)cc1Cl` [Example 8, 4-(3-chloro-4-fluoroanilino)-6-[5-(2-morpholinoethyl)thien-2-yl]quinazoline]: the “inhibition in Test (d) (tumour volume relative to untreated controls)” value is on record as 64%.

Tested on in a further data set: not given
Test: not given
Settings: not given
The compound `Cl.O=C(Nc1ccc2ncnc(Nc3ccc(F)c(Cl)c3)c2c1)c1ccno1` displayed a melting point greater than 250 °C.
Still for that read-out and setting: to `Fc1ccc(Nc2ncnc3ccc(-c4ccco4)cc23)cc1Cl` [Example 5, 4(3-chloro-4-fluoroanilino)-6-(2-furyl)quinazoline] belongs 232 to 234 °C; to `Cc1cccc(Nc2ncnc3ccc(CSc4c[nH]nn4)cc23)c1` [Example 34, 4-(3-methylanilino)-6-(1,2,3-triazol-4-ylthiomethyl)quinazoline], 64 to 68 °C.
Take `Cc1cccc(Nc2ncnc3ccc(CSc4nccn4C)cc23)c1` [Example 35, 4-(3-methylanilino)-6-(N-methylimidazol-2-ylthiomethyl)quinazoline]: the melting point was in the range of 137 to 139 °C.
In the case of `Fc1ccc(Nc2ncnc3ccc(-c4ccsc4)cc23)cc1Cl` [Example 7, 4-(3-chloro-4-fluoroanilino)-6-(3-thienyl)quinazoline], the melting point fell in the range of 195 to 197 °C.
The same measure, in the same setting: the value for `N#Cc1ccc(-c2ccc3ncnc(Nc4ccc(F)c(Cl)c4)c3c2)cc1` [Example 1, 4-(3-chloro-4-fluoroanilino)-6-(4-cyanophenyl)quinazoline] was greater than 250 °C.
With `Cc1cccc(Nc2ncnc3ccc(CSc4ncc[nH]4)cc23)c1` [Example 36, 6-(2-imidazolylthiomethyl)-4-(3-methylanilino)-quinazoline], the melting point is 217 to 219 °C.
With `Cc1cccc(Nc2ncnc3ccc(NCc4ccsc4)cc23)c1` [Example 16, 4-(3-methylanilino)-6-(3-thienylmethylamino)quinazoline], the melting point was 207 to 208 °C.
Same read-out and setting: to `Cc1cccc(Nc2ncnc3ccc(Nc4ncc[nH]4)cc23)c1` [Example 14, 6-(2-imidazolylamino)-4-(3-methylanilino)quinazoline] belongs 256 to 258 °C.
On the same count and under the same terms, the value for `Cc1cccc(Nc2ncnc3ccc(-c4ccccc4)cc23)c1` [Example 2, 4-(3-methylanilino)-6-phenylquinazoline] was 207 to 209 °C; that for `Cc1cccc(Nc2ncnc3ccc(NS(=O)(=O)c4cn(C)cn4)cc23)c1` [Example 15, 4-(3-methylanilino)-6-(1-methylimidazole-4-sulphonamido)quinazoline] was greater than 250 °C; that for `CNc1cc2ncnc(Nc3ccc(F)c(Cl)c3)c2cc1NC(=O)c1cccnc1` [Example 24, 4-(3-chloro-4-fluoroanilino)-7-methylamino-6-(pyridine-3-carboxamido)quinazoline] was greater than 260 °C.
Compound `Cc1cc(Nc2ncnc3ccc(-c4cccs4)cc23)ccc1OCc1ccccn1` [Example 38, 4-[3-methyl-4-(2-pyridylmethoxy)anilino]-6-(2-thienyl)-quinazoline] yielded a melting point of 205 to 206 °C.
On the same count and under the same terms, to `Cl.O=C(Nc1ccc2ncnc(Nc3ccc(F)c(Cl)c3)c2c1)c1cccs1` belongs greater than 250 °C; to `Fc1ccc(Nc2ncnc3ccc(-c4cccs4)cc23)cc1Cl` [Example 6, 4-(3-chloro-4-fluoroanilino)-6-(2-thienyl)quinazoline], 205 to 208 °C; to `Fc1ccc(Nc2ncnc3ccc(NCc4cccs4)cc23)cc1Cl` [Example 19, 4-(3-chloro-4-fluoroanilino)-6-(2-thienylmethylamino)quinazoline], 193 to 195 °C.
Compound `Cc1cccc(Nc2ncnc3ccc(CSc4nc5ccccc5[nH]4)cc23)c1` [Example 37, 6-(2-benzimidazolylthiomethyl)-4-(3-methylanilino)quinazoline] displayed a melting point of 123 to 129 °C.
Still for that read-out and setting: to `Cc1cc(Nc2ncnc3ccc(-c4ccoc4)cc23)ccc1OCc1ccccn1` [Example 39, 6-(3-furyl)-4-[3-methyl-4-(2-pyridylmethoxy)anilino]-quinazoline] belongs 206 to 208 °C.

A further data set has as its system transplanted human mammary carcinoma.
Test: not given
The settings on record: carcinoma which does not express EGF receptor tyrosine kinase; cited from earlier work.
Turning to `O=CN/C=C/c1cc(O)ccc1O` [erbstatin], the “growth of another carcinoma” value is “without effect on the growth”.

Staying with this data set, now noted: carcinoma which expresses EGF receptor tyrosine kinase; athymic nude mice; cited from earlier work.
Turning to `O=CN/C=C/c1cc(O)ccc1O` [erbstatin], the “growth of transplanted human mammary carcinoma” value is reported as “specifically attenuates the growth”.
